{
  "source": "paper PMC9947563",
  "about": "“Identification of the molecular determinants of antagonist potency in the allosteric binding pocket of human P2X4” (Frontiers in Pharmacology, 2023)",
  "key": {"rP2X4": {"system": "rP2X4", "details": "ref Ase et al. (2015); cited from earlier work"}, "zebrafish P2X4": {"system": "zebrafish P2X4", "set-up": "method as in Ase et al. (2015)", "details": "ref Ase et al. (2015); cited from earlier work"}, "[1]": {"molecular_target": "T1, rat P2X4 T312I (r4-T312I) (Rattus norvegicus, UniProt P51577, T312I)", "T1 construct": "expressed in transfected cells; host or cells: 1321N1 astrocytoma cells, stably transfected", "T1 sequence (P51577 1-388 T312I)": "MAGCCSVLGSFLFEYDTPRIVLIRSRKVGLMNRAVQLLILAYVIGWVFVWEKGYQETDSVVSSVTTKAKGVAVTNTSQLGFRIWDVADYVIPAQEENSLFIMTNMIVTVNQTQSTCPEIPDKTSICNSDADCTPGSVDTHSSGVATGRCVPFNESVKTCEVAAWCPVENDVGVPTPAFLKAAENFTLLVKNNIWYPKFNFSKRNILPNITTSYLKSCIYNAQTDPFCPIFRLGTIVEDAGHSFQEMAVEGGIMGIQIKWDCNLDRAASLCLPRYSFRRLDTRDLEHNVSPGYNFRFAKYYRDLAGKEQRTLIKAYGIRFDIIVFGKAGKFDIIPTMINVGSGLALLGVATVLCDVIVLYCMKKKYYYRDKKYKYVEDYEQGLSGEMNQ", "assay": "ATP-induced calcium influx (Fluo-4) in 1321N1 cells stably expressing rat P2X4 T312I", "type": "cell-based", "from_the_text": "Plasmid encoding rat P2X4 (r4-WT) ([Royle et al., 2005]) was a kind gift from Ruth Murrell-Lagnado, whilst that encoding human P2X4 with a C-terminal (His)10 tag has been reported previously ([Young et al., 2008]). Plasmids containing rat P2X4 T312I (r4-T312I) and human P2X4 I312T mutants (h4-I312T) were generated using the QuikChange Lightning site-directed mutagenesis kit (Agilent) according to manufacturer’s instructions. Sequencing of the constructs and of the genomic DNA from stably transfected cells confirmed correct full coding sequences.\n(§1) 1321N1 astrocytoma cells were cultured (at 37°C, 5% CO2) in Dulbecco’s modified Eagle’s medium (DMEM/F-12 with Glutamax) supplemented with 10% foetal bovine serum (FBS) and 200 unit/mL of penicillin and streptomycin antibiotics (Fisher Scientific). Stably transfected clones were grown in DMEM/F-12 with Glutamax medium supplemented with G-418 (Geneticin®, Fisher Scientific), 600 μg/mL and 150 μg/mL during selection and maintenance, respectively. FuGene HD Transfection Reagent (Promega) was used according to the manufacturer’s protocol for the generation of stable cell line expressing h4-WT, r4-WT, h4-I312T, and r4-T312I. Each cell line was then tested for P2X4 receptor expression by Western blot and for functionality using the Ca^2+ influx assay.\n(§2) Cells were plated the day before assay into poly-lysine-coated 96-well plates at 40–55,000 cells/mL. To load cells with calcium-sensitive fluorescent dye, culture medium was replaced with modified Ringer’s buffer (140 mM NaCl, 10 mM HEPES, 10 mM Glucose, 1 mM MgCl2, 1 mM CaCl2, 2.5 mM KCl, 0.5% BSA, pH = 7.4) containing 2.6 μM FLUO4-AM (Fisher Scientific) and 250 μM probenecid (Sigma), and cells were incubated for 20–30 min. Prior to assay, buffer was replaced with fresh modified Ringer’s buffer containing probenecid but not the dye. […] A Fluoroskan Ascent FL plate reader (Fisher Scientific) equipped with a solution dispenser and an appropriate filter pair (excitation: 485 nm, emission: 538 nm) was used to record 5-s baseline followed by P2X4-mediated calcium influx measurements for 20–25 s after ATP stimulation (final concentration ranging between 0.03 and 100 μM in buffered solution, pH = 7.4). The collected responses were normalized to the first data-point recorded after ATP injection.\n(§3) Data processing and data analysis were carried out using Graphpad Prism version 6 for Mac. Figures are presented as Mean ± SEM. Statistical significance of any difference observed between samples was calculated through one-way ANOVA followed by Dunnett’s multiple comparisons test with a single pooled variance (control, unless otherwise specified) or, when comparing only two sets of data, using an unpaired t-test with Welch’s correction. When comparing data obtained from multiple independent experiments (N), each dataset was normalized to the mean value obtained for the vehicle control."}, "mP2X4": {"system": "mP2X4", "details": "ref Ase et al. (2015); read-out: mP2X4 IC50; cited from earlier work"}, "[2]": {"molecular_target": "T2, rat P2X4 wild type (r4-WT) (Rattus norvegicus, UniProt P51577)", "T2 construct": "expressed in transfected cells; host or cells: 1321N1 astrocytoma cells, stably transfected", "T2 sequence (P51577 1-388)": "T1 sequence (P51577 1-388 T312I) with I312T", "assay": "ATP-induced calcium influx (Fluo-4) in 1321N1 cells stably expressing rat P2X4 wild type", "type": "cell-based", "description": "as §1, §2, §3"}},
  "note": "Substitutions are numbered along the chain they refer to.",
  "data": [
    {"compound": "CC(C)c1cc(Br)c(NC(=O)Nc2cccnc2)c(Br)c1", "note": "[BX430]", "values": [
      {"measurement": "IC50", "setting": "rP2X4", "result": "> 10", "unit": "µM"},
      {"measurement": "IC50", "setting": "zebrafish P2X4", "result": 1890, "unit": "nM"},
      {"measurement": "IC50", "setting": "[1]", "result": 1390, "unit": "nM"},
      {"measurement": "increase in BX430 potency by T312I mutation in rat P2X4", "setting": "[1]; rat P2X4 T312I vs rat P2X4 WT", "result": "approx. 47 fold"},
      {"measurement": "Hill coefficient (BX-430 inhibition curve)", "setting": "[1]; rat P2X4 T312I, 1 µM ATP", "result": 2.475},
      {"measurement": "IC50", "setting": "mP2X4", "result": "> 10", "unit": "µM"},
      {"measurement": "IC50", "setting": "[2]", "result": 66.1, "unit": "µM"},
      {"measurement": "Hill coefficient (BX-430 inhibition curve)", "setting": "[2]; rat P2X4 WT, 1 µM ATP", "result": 1.441}
    ]}
  ]
}
